Results on six compounds are retold here after patent US20240116845A1, “INDENE COMPOUNDS, PHARMACEUTICAL COMPOSITIONS THEREOF, AND THEIR THERAPEUTIC APPLICATIONS” (NucMito Pharmaceuticals Co., Ltd., priority 2021, published 2024).

The term inhibition denotes the percentage by which the read-out fell short of the control.

Holding throughout (format): cell-based
For assay [1], the system named is alpha-smooth muscle actin (α-SMA). The assay is described as follows: Inhibition of TGF-β induced expression of alpha-smooth muscle actin in CFSC cells (western blot). The following applies: compound at 10 μM, TGF-β (10 ng/mL), 24 hours. In outline: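 Read-out is percent decrease in α-SMA western-blot band intensity, β-actin also probed, relative to TGF-β-only cells. CFSC cells were co-treated for 24 h at 37 °C with 10 ng/mL TGF-β and 10 μM compound in serum-free DMEM.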

The test system of assay [2] is A431 (epidermoid carcinoma). The assay is described as follows: Antiproliferative activity, CCK-8 cell viability. The following applies: Homo sapiens, A-431, 72 h, read-out: Inhibition of Cancerous Cells, A431; for inhibition at 3.3 µM: compound concentration of 3.3 μM; for inhibition at 10 µM: compound concentration of 10 μM; for inhibition at 30 µM: compound concentration of 30 μM. An outline of the steps: (§1)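 Viability relative to DMSO controls came from CCK-8 absorbance at 450 nm after 72 h exposure at 37°C. Compound concentrations were 3.3, 10 or 30 μM, in DMEM plus 10% FBS. Results are categorised by inhibition level: at least 50%, 30 to under 50%, or under 30%.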

In assay [3] the test system is A549 (lung adenocarcinoma). The assay is described as follows: Antiproliferative activity, CCK-8 cell viability. The following applies: Homo sapiens, 72 h, read-out: Inhibition of Cancerous Cells, A549; for inhibition at 3.3 µM: compound concentration of 3.3 μM; for inhibition at 10 µM: compound concentration of 10 μM; for inhibition at 30 µM: compound concentration of 30 μM.

Assay [4] deals with B16F10 (malignant melanoma). The assay is described as follows: Antiproliferative activity, CCK-8 cell viability. The note with it: Mus musculus, B16-F10, 72 h, read-out: Inhibition of Cancerous Cells, B16F10; for inhibition at 3.3 µM: compound concentration of 3.3 μM; for inhibition at 10 µM: compound concentration of 10 μM; for inhibition at 30 µM: compound concentration of 30 μM. In outline:
as §1

In a further assay the test system is HeLa (cervical cancer). The assay is described as follows: Antiproliferative activity, CCK-8 cell viability. The following applies: Homo sapiens, 72 h, read-out: Inhibition of Cancerous Cells, HELA; for inhibition at 3.3 µM: compound concentration of 3.3 μM; for inhibition at 10 µM: compound concentration of 10 μM; for inhibition at 30 µM: compound concentration of 30 μM.

A further assay has as its system HepG2 (liver cancer). The assay is described as follows: Antiproliferative activity, CCK-8 cell viability. The following applies: Homo sapiens, 72 h, read-out: Inhibition of Cancerous Cells, HepG2; for inhibition at 3.3 µM: compound concentration of 3.3 μM; for inhibition at 10 µM: compound concentration of 10 μM; for inhibition at 30 µM: compound concentration of 30 μM. In outline: as §1

For assay [5], the system named is MDA-MB-231 (breast cancer). The assay is described as follows: Antiproliferative activity, CCK-8 cell viability. The following applies: Homo sapiens, 72 h, read-out: Inhibition of Cancerous Cells, MDA-MB-231; for inhibition at 3.3 µM: compound concentration of 3.3 μM; for inhibition at 10 µM: compound concentration of 10 μM; for inhibition at 30 µM: compound concentration of 30 μM. In outline: as §1

The subject of another assay is SW480 (colon cancer). The assay is described as follows: Antiproliferative activity, CCK-8 cell viability. The following applies: Homo sapiens, 72 h, read-out: Inhibition of Cancerous Cells, SW480; for inhibition at 3.3 µM: compound concentration of 3.3 μM; for inhibition at 10 µM: compound concentration of 10 μM; for inhibition at 30 µM: compound concentration of 30 μM. In outline:
as §1

As for `CC1=C(CC(=O)NO)c2cc(F)ccc2/C1=C\c1ccc(C(C)(C)C)cc1` [Compound D42, (Z)-2-(1-(4-(Tert-butyl)benzylidene)-5-fluoro-2-methyl-1H-inden-3-yl)-N-hydroxyacetamide], the inhibition at 10 µM in assay [1] was 50 to 80%; in assay [2] it was at least 50%; in assay [3], at least 50%; in assay [4] it was at least 50%; in the assay with HeLa (cervical cancer), at least 50%; in the assay on HepG2 (liver cancer), 30 to 50%. Moreover, the inhibition at 10 µM (in assay [5]; in the assay on SW480 (colon cancer)) was at least 50% throughout. Further, the inhibition at 3.3 µM was at least 50% in assay [2]; at least 50% in assay [3]; at least 50% in assay [4]; 30 to 50% in the assay with HeLa (cervical cancer); under 30% with HepG2 (liver cancer); at least 50% in assay [5]. Also, the inhibition at 3.3 µM in the assay on SW480 (colon cancer) is at least 50%. The inhibition at 30 µM (in assay [2]; in assay [3]; in assay [4]; with HeLa (cervical cancer); with HepG2 (liver cancer); in assay [5]) was at least 50% throughout. Moreover, in the assay with SW480 (colon cancer), the inhibition at 30 µM is at least 50%.

For `CC1=C(CC(=O)O)c2cc(F)ccc2/C1=C\c1ccc(CN(Cc2ccccc2)c2ccccc2)cc1` [Compound A10, 2-[(1Z)-1-[(4-{[Benzyl(phenyl)amino]methyl}phenyl)methylidene]-5-fluoro-2-methyl-1H-inden-3-yl]acetic acid], the inhibition at 10 µM in assay [1] is at least 80%; in assay [2], at least 50%; in assay [3], at least 50%; in assay [4] it was at least 50%; in the assay on HeLa (cervical cancer), at least 50%; in the assay with HepG2 (liver cancer), at least 50%. Also, the inhibition at 10 µM (in assay [5]; with SW480 (colon cancer)) was at least 50% each time. Further, the inhibition at 3.3 µM in assay [2] is at least 50%; in assay [3] it was 30 to 50%; in assay [4], under 30%; with HeLa (cervical cancer), at least 50%; in the assay on HepG2 (liver cancer), at least 50%; in assay [5], at least 50%. Besides, the inhibition at 3.3 µM in the assay with SW480 (colon cancer) was at least 50%. In addition, the inhibition at 30 µM (in assay [2]; in assay [3]; in assay [4]; in the assay on HeLa (cervical cancer); in the assay on HepG2 (liver cancer); in assay [5]) was at least 50% in each case. Further, the inhibition at 30 µM in the assay on SW480 (colon cancer) is at least 50%.

As to `CC1=C(CC(=O)O)c2cc(F)ccc2/C1=C\c1ccc(Oc2ccc(F)c(F)c2)cc1` [Compound D5, 2-[(1Z)-5-Fluoro-2-methyl-1-({4-[3,4-difluorophenoxy]phenyl}methylidene)-1H-inden-3-yl]acetic acid], the inhibition at 10 µM in assay [1] was at least 80%; in assay [2], at least 50%; in assay [3], at least 50%; in assay [4] it was at least 50%; in the assay with HeLa (cervical cancer), at least 50%; in the assay with HepG2 (liver cancer) it was at least 50%. For the same compound, the inhibition at 10 µM (in assay [5]; in the assay on SW480 (colon cancer)) was at least 50% throughout. The inhibition at 3.3 µM in assay [2] was under 30%; in assay [3] it was 30 to 50%; in assay [4] it was at least 50%; in the assay with HeLa (cervical cancer) it was 30 to 50%; in the assay on HepG2 (liver cancer), at least 50%; in assay [5], at least 50%. Moreover, the inhibition at 3.3 µM in the assay on SW480 (colon cancer) is at least 50%. Besides, the inhibition at 30 µM (in assay [2]; in assay [3]; in assay [4]; in the assay on HeLa (cervical cancer); with HepG2 (liver cancer); in assay [5]) was at least 50% each time. Further, the inhibition at 30 µM in the assay with SW480 (colon cancer) was at least 50%.

Turning to `CC1=C(CC(=O)O)c2c(F)cc(F)cc2/C1=C\c1cccc(Oc2ccccc2)c1` [Compound D21, 2-[(1Z)-4,6-Difluoro-1-(3-(phenoxy)benzylidene)-2-methyl-1H-inden-3-yl]-acetic acid], the inhibition at 10 µM in assay [1] was at least 80%; in assay [2], 30 to 50%; in assay [3], at least 50%; in assay [4] it was at least 50%; in the assay on HeLa (cervical cancer), at least 50%; in the assay with HepG2 (liver cancer), 30 to 50%. In addition, the inhibition at 10 µM (in assay [5]; with SW480 (colon cancer)) was at least 50% in each case. Moreover, the inhibition at 3.3 µM in assay [2] was under 30%; in assay [3], 30 to 50%; in assay [4], at least 50%; with HeLa (cervical cancer), under 30%; with HepG2 (liver cancer) it was 30 to 50%; in assay [5], at least 50%. Besides, in the assay on SW480 (colon cancer), the inhibition at 3.3 µM lay in the range of 30 to 50%. For the same compound, the inhibition at 30 µM (in assay [2]; in assay [3]; in assay [4]; in the assay with HeLa (cervical cancer); in the assay with HepG2 (liver cancer); in assay [5]) was at least 50% in each case. The inhibition at 30 µM in the assay on SW480 (colon cancer) was at least 50%.

Take `CC1=C(CC(=O)O)c2cc(F)ccc2/C1=C\c1cccc(COc2ccc(F)cc2F)c1` [Compound A19, 2-[(1Z)-1-({3-[(2,4-Difluorophenoxy)methyl]phenyl}methylidene)-5-fluoro-2-methyl-1H-inden-3-yl]acetic acid]: the inhibition at 10 µM in assay [1] was at least 80%; in assay [2], at least 50%; in assay [3] it was 30 to 50%; in assay [4] it was at least 50%; in the assay with HeLa (cervical cancer), at least 50%; with HepG2 (liver cancer) it was at least 50%. Moreover, the inhibition at 10 µM (in assay [5]; in the assay with SW480 (colon cancer)) was at least 50% each time. Moreover, the inhibition at 3.3 µM in assay [2] was at least 50%; in assay [3], under 30%; in assay [4], at least 50%; in the assay with HeLa (cervical cancer), 30 to 50%; in the assay with HepG2 (liver cancer), 30 to 50%; in assay [5], at least 50%. The inhibition at 3.3 µM with SW480 (colon cancer) is at least 50%. The inhibition at 30 µM (in assay [2]; in assay [3]; in assay [4]; with HeLa (cervical cancer); with HepG2 (liver cancer); in assay [5]) was at least 50% each time. The inhibition at 30 µM in the assay with SW480 (colon cancer) is at least 50%.

For the compound `CC1=C(CC(=O)O)c2cc(F)ccc2/C1=C\c1ccc(Oc2ccc(F)cc2)c(C)c1` [Compound D13, 2-[(1Z)-1-{[3-Methyl-4-(4-fluorophenoxy)phenyl]methylidene}-5-fluoro-2-methyl-1H-inden-3-yl]acetic acid], the inhibition at 10 µM in assay [1] was under 30%; in assay [2], at least 50%; in assay [3], at least 50%; in assay [4], at least 50%; with HeLa (cervical cancer), 30 to 50%; with HepG2 (liver cancer), 30 to 50%. The inhibition at 10 µM (in assay [5]; in the assay on SW480 (colon cancer)) was at least 50% throughout. For the same compound, the inhibition at 3.3 µM was 30 to 50% in assay [2]; 30 to 50% in assay [3]; at least 50% in assay [4]; under 30% in the assay on HeLa (cervical cancer); 30 to 50% in the assay with HepG2 (liver cancer); under 30% in assay [5]. For the same compound, the inhibition at 3.3 µM in the assay with SW480 (colon cancer) was 30 to 50%. Further, the inhibition at 30 µM (in assay [2]; in assay [3]; in assay [4]; in the assay with HeLa (cervical cancer); in the assay with HepG2 (liver cancer); in assay [5]) was at least 50% throughout. Also, the inhibition at 30 µM in the assay with SW480 (colon cancer) is at least 50%.
